Results as given in patent US12319640B2, “Cyclic diones as herbicidal compounds” (SYNGENTA CROP PROTECTION AG, priority 2019, dated 2025).

Columns and labels:
Test in all cases: Glasshouse herbicide test, pre- and post-emergence
Format in all cases: in vivo
[1] = system: Alopecurus myosuroides (ALOMY); conditions: 250 g/h, evaluated after 13 days, five-point scale; for percentage damage caused to the plant, ALOMY POST: post-emergence; for percentage damage caused to the plant, ALOMY PRE: pre-emergence
Method: (§1) Seeds of a variety of test species are sown in standard soil in pots (Lolium perenne (LOLPE), Setaria faberi (SETFA), Alopecurus myosuroides (ALOMY), Echinochloa crus-galli (ECHCG), Avena fatua (AVEFA)). After cultivation for one day (pre-emergence) or after 8 days cultivation (post-emergence) under controlled conditions in a glasshouse (at 24/16° C., day/night; 14 hours light; 65% humidity), the plants are sprayed with an aqueous spray solution derived from the formulation of the technical active ingredient in acetone/water (50:50) solution containing 0.5% Tween 20 (polyoxyethelyene sorbitan monolaurate, CAS RN 9005-64-5). Compounds are applied at 250 g/h. The test plants are then grown in a glasshouse under controlled conditions in a glasshouse (at 24/16° C., day/night; 14 hours light; 65% humidity) and watered twice daily. After 13 days for pre and post-emergence, the test is evaluated for the percentage damage caused to the plant. The biological activities are shown in the following table on a five-point scale (5=80-100%; 4=60-79%; 3=40-59%; 2=20-39%; 1=0-19%).

Lolium perenne (LOLPE) = conditions: 250 g/h, evaluated after 13 days, five-point scale; for percentage damage caused to the plant, LOLPE POST: post-emergence; for percentage damage caused to the plant, LOLPE PRE: pre-emergence
Method: as §1

Setaria faberi (SETFA) = conditions: 250 g/h, evaluated after 13 days, five-point scale; for percentage damage caused to the plant, SETFA POST: post-emergence; for percentage damage caused to the plant, SETFA PRE: pre-emergence
Method: as §1

[2] = system: Echinochloa crus-galli (ECHCG); conditions: 250 g/h, evaluated after 13 days, five-point scale; for percentage damage caused to the plant, ECHCG POST: post-emergence; for percentage damage caused to the plant, ECHCG PRE: pre-emergence
Method: as §1

Avena fatua (AVEFA) = conditions: 250 g/h, evaluated after 13 days, five-point scale; for percentage damage caused to the plant, AVEFA POST: post-emergence; for percentage damage caused to the plant, AVEFA PRE: pre-emergence
Method: as §1

Compound	percentage damage caused to the plant, ALOMY POST [1]	percentage damage caused to the plant, ALOMY PRE [1]	percentage damage caused to the plant, LOLPE POST (Lolium perenne (LOLPE))	percentage damage caused to the plant, LOLPE PRE (Lolium perenne (LOLPE))	percentage damage caused to the plant, SETFA POST (Setaria faberi (SETFA))	percentage damage caused to the plant, SETFA PRE (Setaria faberi (SETFA))	percentage damage caused to the plant, ECHCG POST [2]	percentage damage caused to the plant, ECHCG PRE [2]	percentage damage caused to the plant, AVEFA POST (Avena fatua (AVEFA))	percentage damage caused to the plant, AVEFA PRE (Avena fatua (AVEFA))
CNC(=O)C1CCC2(CC1)CC(=O)C(c1c(C)cc(-c3ccc(F)cn3)cc1C)C(=O)C2 (stereo not drawn) [Compound 1.024]	5 (5=80-100%)	5 (5=80-100%)	5 (5=80-100%)	5 (5=80-100%)	5 (5=80-100%)	5 (5=80-100%)	5 (5=80-100%)	5 (5=80-100%)	5 (5=80-100%)	5 (5=80-100%)
CNC(=O)C1CCC2(CC1)CC(=O)C(c1c(C)cc(-c3ccc(F)cc3)cc1C)C(=O)C2 (stereo not drawn) [Compound 1.025]	5 (5=80-100%)	5 (5=80-100%)	5 (5=80-100%)	5 (5=80-100%)	5 (5=80-100%)	5 (5=80-100%)	5 (5=80-100%)	5 (5=80-100%)	5 (5=80-100%)	5 (5=80-100%)
CC#Cc1cc(C)c(C2C(=O)CC3(CCC(NC(C)=O)CC3)CC2=O)c(C)c1 (stereo not drawn) [Compound 2.001, N-[3-(2,6-dimethyl-4-prop-1-ynyl-phenyl)-2,4-dioxo-spiro[5.5]undecan-9-yl]acetamide]	5 (5=80-100%)	5 (5=80-100%)	5 (5=80-100%)	5 (5=80-100%)	5 (5=80-100%)	5 (5=80-100%)	5 (5=80-100%)	5 (5=80-100%)	5 (5=80-100%)	5 (5=80-100%)
CC#Cc1cc(C)c(C2C(=O)CC3(CCC(NC(C)=O)CC3)CC2=O)c(OC)c1 (stereo not drawn) [Compound 2.003]	5 (5=80-100%)	5 (5=80-100%)	5 (5=80-100%)	5 (5=80-100%)	5 (5=80-100%)	5 (5=80-100%)	5 (5=80-100%)	5 (5=80-100%)	5 (5=80-100%)	5 (5=80-100%)
CC#Cc1cc(C)c(C2C(=O)CC3(CCC(NC(=O)C4CC4)CC3)CC2=O)c(C)c1 (stereo not drawn) [Compound 2.004]	5 (5=80-100%)	5 (5=80-100%)	5 (5=80-100%)	5 (5=80-100%)	5 (5=80-100%)	5 (5=80-100%)	5 (5=80-100%)	5 (5=80-100%)	5 (5=80-100%)	5 (5=80-100%)
CC#Cc1cc(C)c(C2C(=O)CC3(CCC(NC(=O)C(C)(C)C)CC3)CC2=O)c(C)c1 (stereo not drawn) [Compound 2.005]	5 (5=80-100%)	5 (5=80-100%)	5 (5=80-100%)	5 (5=80-100%)	5 (5=80-100%)	5 (5=80-100%)	5 (5=80-100%)	5 (5=80-100%)	5 (5=80-100%)	5 (5=80-100%)
CC#Cc1cc(C)c(C2C(=O)CC3(CCC(NC(=O)c4ccccn4)CC3)CC2=O)c(C)c1 (stereo not drawn) [Compound 2.006]	5 (5=80-100%)	5 (5=80-100%)	5 (5=80-100%)	5 (5=80-100%)	5 (5=80-100%)	5 (5=80-100%)	5 (5=80-100%)	5 (5=80-100%)	5 (5=80-100%)	4 (4=60-79%)
CC#Cc1cc(C)c(C2C(=O)CC3(CCC(NC(=O)C(=O)NC)CC3)CC2=O)c(C)c1 (stereo not drawn) [Compound 2.007]	5 (5=80-100%)	5 (5=80-100%)	5 (5=80-100%)	5 (5=80-100%)	5 (5=80-100%)	5 (5=80-100%)	5 (5=80-100%)	5 (5=80-100%)	5 (5=80-100%)	5 (5=80-100%)
CC#Cc1cc(C)c(C2C(=O)CC3(CCC(NC(=O)COC(F)F)CC3)CC2=O)c(C)c1 (stereo not drawn) [Compound 2.008]	5 (5=80-100%)	5 (5=80-100%)	5 (5=80-100%)	5 (5=80-100%)	5 (5=80-100%)	5 (5=80-100%)	5 (5=80-100%)	5 (5=80-100%)	5 (5=80-100%)	5 (5=80-100%)
